# In patent publication US20020111274A1, “1-alkyl-3-[1-(substituted phenyl) benzotriazol-6-yl] uracils” (BASF Aktiengesellschaft, priority 2000, published 2002):
# Experiments:
# Parameters in all cases: scale not given here
# [1] = test system: TRZAWR Wheat, Winter, cv Riband; experiment: Preemergence herbicidal evaluation, TRZAWR; assay type: in vivo, Triticum aestivum; conditions: for TRZAWR herbicidal rating: preemergence; for Preemergence herbicidal rating, TRZAWR: rated four to five weeks after treatment
# Procedure, shortened: (§1)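 Preemergence soil spray: aqueous acetone, ~0.013–0.800 kg/ha, applied right after sowing (seed/potting-soil mix over ~1 in soil). Greenhouse, routine watering. Scored 4–5 wk post-treatment on a rating scale.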
# [2] = test system: IPOHE Morningglory, Ivyleaf; experiment: Preemergence herbicidal evaluation, IPOHE; assay type: in vivo, Ipomoea hederacea, (L.) Jacq.; conditions: for IPOHE herbicidal rating: preemergence; for Preemergence herbicidal rating, IPOHE: rated four to five weeks after treatment
# Procedure, shortened: as §1
# [3] = test system: AMBEL Ragweed, Common; experiment: Preemergence herbicidal evaluation, AMBEL; assay type: in vivo, Ambrosia artemisifolia, L.; conditions: for AMBEL herbicidal rating: preemergence; for Preemergence herbicidal rating, AMBEL: rated four to five weeks after treatment
# Procedure, shortened: as §1
# [4] = test system: ORYSAT Rice, Tebonnet; experiment: Preemergence herbicidal evaluation, ORYSAT; assay type: in vivo, Oryza sativa, (L.); conditions: for ORYSAT herbicidal rating: preemergence; for Preemergence herbicidal rating, ORYSAT: rated four to five weeks after treatment
# Procedure, shortened: as §1
# [5] = test system: SETVI Foxtail, Green; experiment: Postemergence herbicidal evaluation, SETVI; assay type: in vivo, Setaria viridis, (L.) Beau
# Procedure, shortened: (§2)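 Seedlings grown about two weeks were sprayed with compound in 80/20 acetone/water containing 1.0% methylated seed oil, at the equivalent of about 0.006 to 0.400 kg/ha, through a nozzle at 40 psi. Plants were kept in the greenhouse and rated visually about two to three weeks after treatment.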
# [6] = test system: ABUTH Velvetleaf; experiment: Preemergence herbicidal evaluation, ABUTH; assay type: in vivo, Abutilon theophrasti, Medic.; conditions: for ABUTH herbicidal rating: preemergence
# Procedure, shortened: as §1
# [7] = test system: CASOB Sicklepod; experiment: Postemergence herbicidal evaluation, CASOB; assay type: in vivo, Cassia obtusifolia, L.
# Procedure, shortened: as §2
# [8] = test system: ZEAMX Corn, Field; experiment: Postemergence herbicidal evaluation, ZEAMX; assay type: in vivo, Zea mays, L. (Sammel-Bezeichnung)
# Procedure, shortened: as §2
# [9] = test system: ECHOG Barnyardgrass; experiment: Preemergence herbicidal evaluation, ECHOG; assay type: in vivo, Echinochloa crus-galli, (L.) Beau; conditions: for ECHCG herbicidal rating: preemergence; for Preemergence herbicidal rating, ECHCG: rated four to five weeks after treatment
# Procedure, shortened: as §1
# [10] = test system: ZEAMX Corn, Field; experiment: Preemergence herbicidal evaluation, ZEAMX; assay type: in vivo, Zea mays, L. (Sammel-Bezeichnung); conditions: for ZEAMX herbicidal rating: preemergence; for Preemergence herbicidal rating, ZEAMX: rated four to five weeks after treatment
# Procedure, shortened: as §1
# [11] = test system: TRZAWR Wheat, Winter, cv Riband; experiment: Postemergence herbicidal evaluation, TRZAWR; assay type: in vivo, Triticum aestivum
# Procedure, shortened: as §2
# [12] = test system: GALAP Galium; experiment: Postemergence herbicidal evaluation, GALAP; assay type: in vivo, Galium aparine
# Procedure, shortened: as §2
# [13] = test system: ABUTH Velvetleaf; experiment: Postemergence herbicidal evaluation, ABUTH; assay type: in vivo, Abutilon theophrasti, Medic.
# Procedure, shortened: as §2
# [14] = test system: GALAP Galium; experiment: Preemergence herbicidal evaluation, GALAP; assay type: in vivo, Galium aparine; conditions: for GALAP herbicidal rating: preemergence; for Preemergence herbicidal rating, GALAP: rated four to five weeks after treatment
# Procedure, shortened: as §1
# [15] = test system: CASOB Sicklepod; experiment: Preemergence herbicidal evaluation, CASOB; assay type: in vivo, Cassia obtusifolia, L.; conditions: for CASOB herbicidal rating: preemergence; for Preemergence herbicidal rating, CASOB: rated four to five weeks after treatment
# Procedure, shortened: as §1
# [16] = test system: IPOHE Morningglory, Ivyleaf; experiment: Postemergence herbicidal evaluation, IPOHE; assay type: in vivo, Ipomoea hederacea, (L.) Jacq.
# Procedure, shortened: as §2
# [17] = test system: CHEAL Lambsquarters, Common; experiment: Postemergence herbicidal evaluation, CHEAL; assay type: in vivo, Chenopodium album, L.
# Procedure, shortened: as §2
# [18] = test system: AMBEL Ragweed, Common; experiment: Postemergence herbicidal evaluation, AMBEL; assay type: in vivo, Ambrosia artemisifolia, L.
# Procedure, shortened: as §2
# [19] = test system: ECHOG Barnyardgrass; experiment: Postemergence herbicidal evaluation, ECHOG; assay type: in vivo, Echinochloa crus-galli, (L.) Beau
# Procedure, shortened: as §2
# [20] = test system: ORYSAT Rice, Tebonnet; experiment: Postemergence herbicidal evaluation, ORYSAT; assay type: in vivo, Oryza sativa, (L.)
# Procedure, shortened: as §2
# [21] = test system: GLXMAW Soybean, Williams; experiment: Postemergence herbicidal evaluation, GLXMAW; assay type: in vivo, Glycine max, (L.) Merr. cv Williams
# Procedure, shortened: as §2
# [22] = test system: CHEAL Lambsquarters, Common; experiment: Preemergence herbicidal evaluation, CHEAL; assay type: in vivo, Chenopodium album, L.; conditions: for CHEAL herbicidal rating: preemergence; for Preemergence herbicidal rating, CHEAL: rated four to five weeks after treatment
# Procedure, shortened: as §1
# [23] = test system: SETVI Foxtail, Green; experiment: Preemergence herbicidal evaluation, SETVI; assay type: in vivo, Setaria viridis, (L.) Beau; conditions: for SETVI herbicidal rating: preemergence; for Preemergence herbicidal rating, SETVI: rated four to five weeks after treatment
# Procedure, shortened: as §1
# [24] = test system: GLXMAW Soybean, Williams; experiment: Preemergence herbicidal evaluation, GLXMAW; assay type: in vivo, Glycine max, (L.) Merr. cv Williams; conditions: for GLXMAW herbicidal rating: preemergence; for Preemergence herbicidal rating, GLXMAW: rated four to five weeks after treatment
# Procedure, shortened: as §1
# [25] = 0.016 kg/ha, postemergence spray, rated about two-three weeks after treatment
# [26] = 0.032 kg/ha, postemergence spray, rated about two-three weeks after treatment
# [27] = 0.062 kg/ha, postemergence spray, rated about two-three weeks after treatment
# [28] = rate 0.008 kg/ha, rated two - three weeks after treatment
smiles,measurement,setting,value
Cn1c(C(F)(F)F)cc(=O)n(-c2cc3c(cc2F)nnn3-c2ccc(OCC(=O)O)cc2)c1=O [Example 44],TRZAWR herbicidal rating,[1]; rate 0.062 kg/ha,1.0
same,TRZAWR herbicidal rating,[1]; rate 0.125 kg/ha,1.0
same,"Preemergence herbicidal rating, TRZAWR",[1]; rate 0.016 kg/ha,0.0
same,"Preemergence herbicidal rating, TRZAWR",[1]; rate 0.032 kg/ha,0.0
same,IPOHE herbicidal rating,[2]; rate 0.062 kg/ha,0.0
same,IPOHE herbicidal rating,[2]; rate 0.125 kg/ha,2.0
same,"Preemergence herbicidal rating, IPOHE",[2]; rate 0.016 kg/ha,0.0
same,"Preemergence herbicidal rating, IPOHE",[2]; rate 0.032 kg/ha,0.0
same,AMBEL herbicidal rating,[3]; rate 0.062 kg/ha,0.0
same,AMBEL herbicidal rating,[3]; rate 0.125 kg/ha,0.0
same,"Preemergence herbicidal rating, AMBEL",[3]; rate 0.016 kg/ha,1.0
same,"Preemergence herbicidal rating, AMBEL",[3]; rate 0.032 kg/ha,0.0
same,ORYSAT herbicidal rating,[4]; rate 0.062 kg/ha,5.0
same,ORYSAT herbicidal rating,[4]; rate 0.125 kg/ha,5.0
same,"Preemergence herbicidal rating, ORYSAT",[4]; rate 0.016 kg/ha,0.0
same,"Preemergence herbicidal rating, ORYSAT",[4]; rate 0.032 kg/ha,0.0
same,Postemergence herbicidal rating SETVI,[5]; [25],4.0
same,Postemergence herbicidal rating SETVI,[5]; [26],7.0
same,Postemergence herbicidal rating SETVI,[5]; [27],7.0
same,Postemergence herbicidal rating SETVI,[5]; [28],4.0
same,ABUTH herbicidal rating,[6]; rate 0.062 kg/ha,7.0
same,ABUTH herbicidal rating,[6]; rate 0.125 kg/ha,9.0
same,"Preemergence herbicidal rating, ABUTH","[6]; rate 0.032 kg/ha, rated four to five weeks after treatment",0.0
same,Postemergence herbicidal rating CASOB,[7]; [25],0.0
same,Postemergence herbicidal rating CASOB,[7]; [26],1.0
same,Postemergence herbicidal rating CASOB,[7]; [27],2.0
same,Postemergence herbicidal rating CASOB,[7]; [28],0.0
same,Postemergence herbicidal rating ZEAMX,[8]; [25],6.5
same,Postemergence herbicidal rating ZEAMX,[8]; [26],6.5
same,Postemergence herbicidal rating ZEAMX,[8]; [27],7.0
same,Postemergence herbicidal rating ZEAMX,[8]; [28],4.5
same,ECHCG herbicidal rating,[9]; rate 0.062 kg/ha,0.0
same,ECHCG herbicidal rating,[9]; rate 0.125 kg/ha,0.0
same,"Preemergence herbicidal rating, ECHCG",[9]; rate 0.016 kg/ha,0.0
same,"Preemergence herbicidal rating, ECHCG",[9]; rate 0.032 kg/ha,0.0
same,ZEAMX herbicidal rating,[10]; rate 0.062 kg/ha,1.0
same,ZEAMX herbicidal rating,[10]; rate 0.125 kg/ha,1.0
same,"Preemergence herbicidal rating, ZEAMX",[10]; rate 0.016 kg/ha,0.0
same,"Preemergence herbicidal rating, ZEAMX",[10]; rate 0.032 kg/ha,0.0
same,Postemergence herbicidal rating TRZAWR,[11]; [25],4.0
same,Postemergence herbicidal rating TRZAWR,[11]; [26],3.5
same,Postemergence herbicidal rating TRZAWR,[11]; [27],4.0
same,Postemergence herbicidal rating TRZAWR,[11]; [28],3.0
same,Postemergence herbicidal rating GALAP,[12]; [25],0.0
same,Postemergence herbicidal rating GALAP,[12]; [26],1.0
same,Postemergence herbicidal rating GALAP,[12]; [27],2.0
same,Postemergence herbicidal rating GALAP,[12]; [28],0.0
same,Postemergence herbicidal rating ABUTH,[13]; [25],9.0
same,Postemergence herbicidal rating ABUTH,[13]; [26],7.0
same,Postemergence herbicidal rating ABUTH,[13]; [27],9.0
same,Postemergence herbicidal rating ABUTH,[13]; [28],9.0
same,GALAP herbicidal rating,[14]; rate 0.062 kg/ha,4.0
same,GALAP herbicidal rating,[14]; rate 0.125 kg/ha,7.0
same,"Preemergence herbicidal rating, GALAP",[14]; rate 0.016 kg/ha,3.0
same,"Preemergence herbicidal rating, GALAP",[14]; rate 0.032 kg/ha,5.0
same,CASOB herbicidal rating,[15]; rate 0.062 kg/ha,2.0
same,CASOB herbicidal rating,[15]; rate 0.125 kg/ha,0.0
same,"Preemergence herbicidal rating, CASOB",[15]; rate 0.016 kg/ha,0.0
same,"Preemergence herbicidal rating, CASOB",[15]; rate 0.032 kg/ha,1.0
same,Postemergence herbicidal rating IPOHE,[16]; [25],7.0
same,Postemergence herbicidal rating IPOHE,[16]; [26],9.0
same,Postemergence herbicidal rating IPOHE,[16]; [27],9.0
same,Postemergence herbicidal rating IPOHE,[16]; [28],7.0
same,Postemergence herbicidal rating CHEAL,[17]; [25],7.0
same,Postemergence herbicidal rating CHEAL,[17]; [26],6.0
same,Postemergence herbicidal rating CHEAL,[17]; [27],9.0
same,Postemergence herbicidal rating CHEAL,[17]; [28],5.0
same,Postemergence herbicidal rating AMBEL,[18]; [25],3.0
same,Postemergence herbicidal rating AMBEL,[18]; [26],6.0
same,Postemergence herbicidal rating AMBEL,[18]; [27],7.0
same,Postemergence herbicidal rating AMBEL,[18]; [28],3.0
same,Postemergence herbicidal rating ECHCG,[19]; [25],4.0
same,Postemergence herbicidal rating ECHCG,[19]; [26],6.0
same,Postemergence herbicidal rating ECHCG,[19]; [27],6.0
same,Postemergence herbicidal rating ECHCG,[19]; [28],3.0
same,Postemergence herbicidal rating ORYSAT,[20]; [25],2.5
same,Postemergence herbicidal rating ORYSAT,[20]; [26],2.5
same,Postemergence herbicidal rating ORYSAT,[20]; [27],3.0
same,Postemergence herbicidal rating ORYSAT,[20]; [28],2.5
same,Postemergence herbicidal rating GLXMAW,[21]; [25],6.5
same,Postemergence herbicidal rating GLXMAW,[21]; [26],6.5
same,Postemergence herbicidal rating GLXMAW,[21]; [27],7.0
same,Postemergence herbicidal rating GLXMAW,[21]; [28],5.0
same,CHEAL herbicidal rating,[22]; rate 0.062 kg/ha,9.0
same,CHEAL herbicidal rating,[22]; rate 0.125 kg/ha,9.0
same,"Preemergence herbicidal rating, CHEAL",[22]; rate 0.016 kg/ha,9.0
same,"Preemergence herbicidal rating, CHEAL",[22]; rate 0.032 kg/ha,9.0
same,SETVI herbicidal rating,[23]; rate 0.062 kg/ha,3.0
same,SETVI herbicidal rating,[23]; rate 0.125 kg/ha,9.0
same,"Preemergence herbicidal rating, SETVI",[23]; rate 0.016 kg/ha,0.0
same,"Preemergence herbicidal rating, SETVI",[23]; rate 0.032 kg/ha,0.0
same,GLXMAW herbicidal rating,[24]; rate 0.062 kg/ha,0.0
same,GLXMAW herbicidal rating,[24]; rate 0.125 kg/ha,0.0
same,"Preemergence herbicidal rating, GLXMAW",[24]; rate 0.016 kg/ha,0.0
same,"Preemergence herbicidal rating, GLXMAW",[24]; rate 0.032 kg/ha,0.0
